Source: patent US8636951B2, “Bio-terrorism counteraction using ozone and hydrogen peroxide” (priority 2010, dated 2014)

Tested on: Bacillus subtilis
Assay type: cell-based

| SMILES | A: count of viable Bacillus colonies at 10 dilution | B: count of viable Bacillus colonies at 100 dilution | C: count of viable Bacillus colonies at 1000 dilution | D: count of viable Bacillus colonies at 10000 dilution | Log10 RED |
| --- | --- | --- | --- | --- | --- |
| OO [hydrogen peroxide] | TNTCT | NTC | 210 | 12 | 0 Log10 |
| O=[O+][O-] [ozone] | TNTCT | NTC | – | – | – |
